Results on 20 compounds are retold here after PubChem BioAssay AID588807 (The Scripps Research Institute Molecular Screening Center, 2011).

Activity calls are given as the source filed them. No rule for the calls is given here.

Common to all, as to assay: competitive ABPP of Abhd10 versus anti-targets – biochemical, fluorescence, gel-based, mouse proteome, selectivity assay for PME-1 inhibitor project, late-stage follow-up (AID 588807)
One assay relates to APEH. Particulars: anti-target, stronger effect = higher value.
The next assay deals with Kiaa1363. Particulars: anti-target, at 10 µM, stronger effect = higher value.
The test system of another assay is Magl. The settings on record: anti-target, stronger effect = higher value.
The target in assay [1] is Monoacylglycerol lipase ABHD6 (Mus musculus) (UniProt Q8R2Y0). Particulars: anti-target, at 10 µM, stronger effect = higher value.
Sequence of Monoacylglycerol lipase ABHD6 (Mus musculus) (Q8R2Y0 whole entry, looked up): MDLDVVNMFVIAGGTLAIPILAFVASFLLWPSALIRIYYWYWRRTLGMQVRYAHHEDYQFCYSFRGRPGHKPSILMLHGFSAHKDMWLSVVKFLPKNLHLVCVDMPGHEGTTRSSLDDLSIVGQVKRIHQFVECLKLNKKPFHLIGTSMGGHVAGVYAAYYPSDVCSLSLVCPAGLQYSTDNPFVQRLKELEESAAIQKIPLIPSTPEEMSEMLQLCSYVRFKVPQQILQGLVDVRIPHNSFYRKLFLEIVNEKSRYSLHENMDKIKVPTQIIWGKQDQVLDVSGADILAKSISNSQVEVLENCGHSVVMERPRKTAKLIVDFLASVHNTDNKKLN
Assay [2] deals with Palmitoyl-protein thioesterase ABHD10, mitochondrial (Mus musculus) (UniProt Q6PE15). Particulars: stronger effect = higher value.
Sequence of Palmitoyl-protein thioesterase ABHD10, mitochondrial (Mus musculus) (Q6PE15 whole entry, looked up): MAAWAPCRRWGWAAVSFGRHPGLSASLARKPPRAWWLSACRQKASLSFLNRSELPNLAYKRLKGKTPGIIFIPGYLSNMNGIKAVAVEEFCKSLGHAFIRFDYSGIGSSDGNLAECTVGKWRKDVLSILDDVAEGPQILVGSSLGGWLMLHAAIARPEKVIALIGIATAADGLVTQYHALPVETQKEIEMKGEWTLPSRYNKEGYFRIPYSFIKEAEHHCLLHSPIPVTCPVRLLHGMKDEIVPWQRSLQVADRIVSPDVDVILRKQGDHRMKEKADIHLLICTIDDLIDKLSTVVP
Assay [3] addresses Prolyl endopeptidase (Mus musculus) (UniProt Q9QUR6). Particulars: PREP, anti-target, stronger effect = higher value.

Sequence of Prolyl endopeptidase (Mus musculus) (Q9QUR6 whole entry, looked up): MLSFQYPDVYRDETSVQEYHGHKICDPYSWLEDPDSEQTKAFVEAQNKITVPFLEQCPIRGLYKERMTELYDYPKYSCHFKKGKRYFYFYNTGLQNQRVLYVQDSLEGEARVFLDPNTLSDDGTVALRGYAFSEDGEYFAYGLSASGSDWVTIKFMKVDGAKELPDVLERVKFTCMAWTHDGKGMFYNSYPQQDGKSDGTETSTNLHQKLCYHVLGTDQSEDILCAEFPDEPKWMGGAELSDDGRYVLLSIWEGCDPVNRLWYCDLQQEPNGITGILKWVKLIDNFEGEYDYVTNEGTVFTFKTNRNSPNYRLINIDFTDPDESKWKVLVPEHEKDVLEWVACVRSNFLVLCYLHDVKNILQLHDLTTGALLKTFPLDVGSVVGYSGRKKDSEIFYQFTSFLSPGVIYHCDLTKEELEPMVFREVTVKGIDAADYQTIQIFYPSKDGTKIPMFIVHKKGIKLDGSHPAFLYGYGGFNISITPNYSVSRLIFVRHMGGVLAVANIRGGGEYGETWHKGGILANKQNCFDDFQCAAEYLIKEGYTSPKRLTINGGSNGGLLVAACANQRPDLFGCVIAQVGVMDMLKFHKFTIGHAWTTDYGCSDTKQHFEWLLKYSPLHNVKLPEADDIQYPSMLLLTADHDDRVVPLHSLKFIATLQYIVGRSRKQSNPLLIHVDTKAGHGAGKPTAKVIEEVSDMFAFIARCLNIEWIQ

For the compound `CC[C@@]1(c2cccc(C)c2)C(=O)N(C(=O)OC)N1C(=O)OC`, the inhibition – broadly, the change of the read-out against control, counted positive when it falls – in the assay on APEH (at 10 µM) is 50% (inactive); with Kiaa1363, 35% (inactive); in the assay on Magl (at 10 µM), 45% (inactive); in assay [1], 50% (inactive); in assay [2] (at 10 µM) it was 100% (inactive); in assay [2] (inhibition, at 0.1 µM), 35%. The inhibition was 100% in assay [2] (inhibition, at 1 µM); 85% (inactive) in assay [3] (at 10 µM); 20% in assay [3] (inhibition, at 1 µM).

In the case of `C=CCOC(=O)N1C(=O)[C@@](CC)(c2cccc(C)c2)N1C(=O)OCC=C`, the inhibition was 20% (inactive) in the assay with APEH (at 10 µM); 20% (inactive) with Kiaa1363; 50% (inactive) with Magl (at 10 µM); 75% (inactive) in assay [1]; 90% (inactive) in assay [2] (at 10 µM); 35% in assay [2] (inhibition, at 0.1 µM). Besides, the inhibition in assay [2] (inhibition, at 1 µM) is 85%; in assay [3] (at 10 µM), 65% (inactive); in assay [3] (inhibition, at 1 µM), 10%.

As to `CC[C@@]1(c2ccc(Cl)cc2)C(=O)N(C(=O)OC)N1C(=O)OC`, the inhibition in the assay on APEH (at 10 µM) was 45% (inactive); in the assay on Kiaa1363 it was 25% (inactive); in the assay with Magl (at 10 µM), 45% (inactive); in assay [1], 50% (inactive); in assay [2] (at 10 µM) it was 100%; in assay [2] (inhibition, at 0.1 µM) it was 60%. In addition, the inhibition is 100% in assay [2] (inhibition, at 1 µM) and 50% (inactive) in assay [3] (at 10 µM).

As to `CCOC(=O)N1C(=O)[C@@](C)(c2cccc(C)c2)N1C(=O)OCC`, the inhibition with APEH (at 10 µM) is 45% (inactive); with Kiaa1363 it was 0% (inactive); in the assay with Magl (at 10 µM), 0% (inactive); in assay [1] it was 0% (inactive); in assay [2] (at 10 µM), 100%; in assay [2] (inhibition, at 0.1 µM), 60%. The inhibition was 80% in assay [2] (inhibition, at 1 µM) and 0% (inactive) in assay [3] (at 10 µM).

Take `CC[C@@]1(c2ccccc2)C(=O)N(C(=O)OC)N1C(=O)OC`: the inhibition is 0% (inactive) in the assay on APEH (at 10 µM); 0% (inactive) in the assay on Kiaa1363; 0% (inactive) in the assay with Magl (at 10 µM); 0% (inactive) in assay [1]; 10% (inactive) in assay [2] (at 10 µM); 0% (inactive) in assay [3] (at 10 µM).

With `C=CCOC(=O)N1C(=O)[C@@](CC)(c2ccccc2)N1C(=O)OCC=C`, the inhibition in the assay on APEH (at 10 µM) is 55% (inactive); in the assay with Kiaa1363, 35% (inactive); with Magl (at 10 µM), 50% (inactive); in assay [1] it was 80% (inactive); in assay [2] (at 10 µM), 100% (inactive); in assay [2] (inhibition, at 0.1 µM) it was 30%. In addition, the inhibition in assay [2] (inhibition, at 1 µM) is 90%; in assay [3] (at 10 µM) it was 70% (inactive); in assay [3] (inhibition, at 1 µM) it was 10%.

In the case of `CC[C@@]1(c2ccc(Cl)c(Cl)c2)C(=O)N(C(=O)OC(C)C)N1C(=O)OC(C)C`, the inhibition with APEH (at 10 µM) is 50% (inactive); in the assay with Kiaa1363 it was 0% (inactive); in the assay with Magl (at 10 µM), 25% (inactive); in assay [1], 50% (inactive); in assay [2] (at 10 µM), 90% (inactive); in assay [2] (inhibition, at 0.1 µM), 25%. Besides, the inhibition was 90% in assay [2] (inhibition, at 1 µM) and 80% (inactive) in assay [3] (at 10 µM).

Take `CC[C@@]1(c2ccccc2)C(=O)N(C(=O)OC(C)C)N1C(=O)OC(C)C`: the inhibition in the assay on APEH (at 10 µM) is 85% (inactive); with APEH (inhibition, at 0.1 µM), 10%; with APEH (inhibition, at 1 µM), 10%; in the assay on Kiaa1363 it was 0% (inactive); in the assay with Magl (at 10 µM), 0% (inactive); in assay [1], 65% (inactive). Further, the inhibition in assay [2] (at 10 µM) was 100%; in assay [2] (inhibition, at 0.1 µM), 70%; in assay [2] (inhibition, at 1 µM), 90%; in assay [3] (at 10 µM) it was 70% (inactive); in assay [3] (inhibition, at 1 µM), 10%.

With `CCC[C@@]1(c2cccc(C)c2)C(=O)N(C(=O)OC)N1C(=O)OC`, the inhibition with APEH (at 10 µM) is 0% (inactive); in the assay on Kiaa1363 it was 0% (inactive); in the assay with Magl (at 10 µM), 0% (inactive); in assay [1], 0% (inactive); in assay [2] (at 10 µM), 10% (inactive); in assay [3] (at 10 µM) it was 0% (inactive).

Turning to `CC[C@@]1(c2ccccc2C)C(=O)N(C(=O)OC)N1C(=O)OC`, the inhibition with APEH (at 10 µM) is 55% (inactive); in the assay on Kiaa1363, 25% (inactive); with Magl (at 10 µM) it was 10% (inactive); with Magl (inhibition, at 0.1 µM), 10%; in assay [1] it was 40% (inactive); in assay [2] (at 10 µM), 90% (inactive). Further, the inhibition in assay [2] (inhibition, at 0.1 µM) is 20%; in assay [2] (inhibition, at 1 µM), 15%; in assay [3] (at 10 µM), 70% (inactive); in assay [3] (inhibition, at 0.1 µM), 20%.

`CC[C@]1(c2ccc(C)cc2)C(=O)N(C(=O)OC(C)C)N1C(=O)OC(C)C`: the inhibition was 100% (inactive) in the assay with APEH (at 10 µM); 30% in the assay with APEH (inhibition, at 1 µM); 0% (inactive) in the assay on Kiaa1363; 0% (inactive) in the assay with Magl (at 10 µM); 0% (inactive) in assay [1]; 45% (inactive) in assay [2] (at 10 µM). Further, the inhibition in assay [3] (at 10 µM) was 0% (inactive).

On to `CC[C@@]1(c2cccc(OC)c2)C(=O)N(C(=O)OC(C)C)N1C(=O)OC(C)C`, for which the inhibition with APEH (at 10 µM) was 0% (inactive); in the assay on Kiaa1363, 0% (inactive); with Magl (at 10 µM) it was 0% (inactive); in assay [1], 25% (inactive); in assay [2] (at 10 µM), 95% (inactive); in assay [2] (inhibition, at 0.1 µM), 40%. Moreover, the inhibition in assay [2] (inhibition, at 1 µM) was 90%; in assay [3] (at 10 µM), 0% (inactive).

For `CCOC(=O)N1C(=O)[C@@](CC)(c2ccc(C)cc2)N1C(=O)OCC`, the inhibition with APEH (at 10 µM) is 0% (inactive); in the assay on Kiaa1363, 25% (inactive); with Magl (at 10 µM) it was 60% (inactive); in assay [1], 55% (inactive); in assay [2] (at 10 µM) it was 100%; in assay [2] (inhibition, at 0.1 µM), 60%. Also, the inhibition is 95% in assay [2] (inhibition, at 1 µM) and 65% (inactive) in assay [3] (at 10 µM).

`CC[C@@]1(c2cccc(C)c2)C(=O)N(C(=O)OC)N1C(=O)OC(C)C`: the inhibition is 20% (inactive) with APEH (at 10 µM); 0% (inactive) with Kiaa1363; 0% (inactive) with Magl (at 10 µM); 75% (inactive) in assay [1]; 100% (inactive) in assay [2] (at 10 µM); 20% in assay [2] (inhibition, at 0.1 µM). Moreover, the inhibition in assay [2] (inhibition, at 1 µM) is 95%; in assay [3] (at 10 µM), 70% (inactive); in assay [3] (inhibition, at 0.1 µM) it was 20%; in assay [3] (inhibition, at 1 µM) it was 35%.

`CC[C@]1(c2cccc(C)c2)C(=O)N(C(=O)OC)N1C(=O)OC`: the inhibition is 0% (inactive) in the assay with APEH (at 10 µM); 0% (inactive) with Kiaa1363; 0% (inactive) with Magl (at 10 µM); 0% (inactive) in assay [1]; 85% (inactive) in assay [2] (at 10 µM); 20% in assay [2] (inhibition, at 1 µM). In assay [3] (at 10 µM), the inhibition is 0% (inactive).

Regarding `CC[C@@]1(c2cccc(C)c2)C(=O)N(C(=O)OC(C)C)N1C(=O)OC`, the inhibition in the assay with APEH (at 10 µM) is 0% (inactive); in the assay on Kiaa1363, 0% (inactive); in the assay with Magl (at 10 µM), 0% (inactive); in assay [1], 0% (inactive); in assay [2] (at 10 µM), 60% (inactive); in assay [2] (inhibition, at 0.1 µM) it was 10%. Further, the inhibition is 25% in assay [2] (inhibition, at 1 µM); 30% (inactive) in assay [3] (at 10 µM); 10% in assay [3] (inhibition, at 1 µM).

Consider `CC[C@@]1(c2ccc(C)cc2)C(=O)N(C(=O)OC(C)C)N1C(=O)OC(C)C`, for which the inhibition was 15% (inactive) in the assay on APEH (at 10 µM); 0% (inactive) in the assay with Kiaa1363; 0% (inactive) with Magl (at 10 µM); 50% (inactive) in assay [1]; 95% in assay [2] (at 10 µM); 90% in assay [2] (inhibition, at 0.1 µM). Also, the inhibition was 90% in assay [2] (inhibition, at 1 µM); 75% (inactive) in assay [3] (at 10 µM); 30% in assay [3] (inhibition, at 1 µM).

Consider `CC[C@@]1(c2cccc(OC)c2)C(=O)N(C(=O)OC)N1C(=O)OC`, for which the inhibition is 0% (inactive) with APEH (at 10 µM); 0% (inactive) in the assay with Kiaa1363; 0% (inactive) in the assay on Magl (at 10 µM); 0% (inactive) in assay [1]; 90% (inactive) in assay [2] (at 10 µM); 65% in assay [2] (inhibition, at 1 µM). Further, the inhibition in assay [3] (at 10 µM) is 0% (inactive).

Turning to `CC[C@@]1(c2ccc(C)cc2)C(=O)N(C(=O)OC)N1C(=O)OC`, the inhibition in the assay with APEH (at 10 µM) is 20% (inactive); in the assay on Kiaa1363 it was 15% (inactive); in the assay with Magl (at 10 µM), 10% (inactive); in assay [1] it was 25% (inactive); in assay [2] (at 10 µM), 100%; in assay [2] (inhibition, at 0.1 µM), 55%. In addition, the inhibition in assay [2] (inhibition, at 1 µM) is 95%; in assay [3] (at 10 µM), 50% (inactive); in assay [3] (inhibition, at 1 µM), 20%.

For `C=CCOC(=O)N1C(=O)[C@@](CC)(c2ccc(C)cc2)N1C(=O)OCC=C`, the inhibition with APEH (at 10 µM) was 0% (inactive); in the assay with Kiaa1363, 10% (inactive); in the assay on Magl (at 10 µM), 50% (inactive); in assay [1], 75% (inactive); in assay [2] (at 10 µM), 90%; in assay [2] (inhibition, at 0.1 µM) it was 80%. Also, the inhibition in assay [2] (inhibition, at 1 µM) was 90%; in assay [3] (at 10 µM), 40% (inactive); in assay [3] (inhibition, at 1 µM) it was 15%.
